A short description of series [1]: Therapeutic agent brain penetration studies (brain concentration). The series is classed as in vivo, wildtype FVB mice. The note with it: for concentration at 1 h: female; for concentration at 1 h / Brain concentration of loperamide, individual animals / Brain concentration of loperamide, mean: 1 h. As to the method:
The drug was administered within 1 h of preparation.
Animals received food and water ad libitum.
Samples were pre-treated as follows. […] 1000 μl of diethyl ether was added.

Series [2] in a line: Plasma concentrations in the brain penetration studies. The note with it: for concentration at 5 min / concentration at 30 min / concentration at 60 min / AUC(0-t): female, FVB (wildtype), mouse, in vivo; for AUC(0-t): iv. As to the method:
The following elacridar nanoparticle suspension was used in these experiments: 5% elacridar w/w plus 1% w/w TPGS, where 2 ml of NP formulation was diluted with 8 ml of 20% TPGS to give a final elacridar concentration of 10 mg/ml.
The drug was mixed, sonicated and administered within 1 h. The dose used was 50 mg/kg (10 μl/g).
The drug was mixed by vortex and administered within 1.5 h. The dose used was 33 mg/kg (10 μl/g).
The drug was administered within 1 h of preparation. The dose used was 5 mg/kg (5 μl/g).
Non-transgenic (wildtype) FVB mice, females, aged 8 to 10 weeks were used. Animals received food and water ad libitum. Mice in the treatment group (n=5) received elacridar NP formulation orally by gavage in the morning (9-10 am). Mice in the control group (n=5) received no elacridar. All mice (treatment and control group) received the therapeutic agent by i.v. injection in the tail vein in the afternoon (3-4 pm). Blood samples (50 μl) were drawn by bleeding from the tip of the tail at 5 min and 30 min after drug administration. At 1 h after API administration the animals were anesthetized using isoflurane and blood was drawn by cardiac puncture. Next, the animal was killed by cervical dislocation and the brains were harvested. Blood was kept on ice until centrifugation (5 min at 5000 g) within 2 h. Brains were kept on ice for weighing and stored at −20° C. until homogenization. Brains were homogenized in 3 ml of 1% w/v of bovine serum albumin in water.
The mice received elacridar at the standard dose of 100 mg/kg. […] The i.v. administration route was selected for the therapeutic agent in order to achieve the most similar plasma exposure of the therapeutic agent between animals receiving therapeutic agent alone or therapeutic agent with elacridar.
Samples were pre-treated as follows. Plasma (5 to 100 μl) was made up to 100 μl with blank human plasma or brain homogenate (100 μl) and pipetted into a 2 ml eppendorf vial. 50 μl of the internal standard (IS) solution (1000 nM of the deuterated analyte) in acetonitrile:water (30:70; v/v) was added. 1000 μl of diethyl ether was added. Tubes were vigorously mixed for at least 5 min then centrifuged (5 min at 5000 g) before being placed in a bath of ethanol with dry-ice in order to freeze the aqueous bottom layer. The organic supernatant was decanted into a clean 1.5 ml Brand vial and evaporated under vacuum in a Speed-Vac (Savant).
For HPLC-MS/MS analyses, the HPLC systems consisted of an Ultimate DGP-3600A pump with a SRD-3600 Solvent Rack and a model WPS-3000TSL autosampler (Dionex, Sunnyvale, Calif., USA). The HPLC column (100×2.1 mm) was packed with 3 um C18 Extend material. The column effluent was guided to an electrospray ionization (ESI) source of an AP13000 mass spectrometer (ABSciex). The mobile phase composition was: Mobile phase A was 0.1% formic acid in water; and Mobile phase B was Methanol (LC-MS quality, Merck).
Pharmacokinetic analyses were performed using the Microsoft Excel add-in program PKsolver (see e.g., Ward K W et al., J Pharmacol Exp Ther 2004; 310: 703-9, which is incorporated herein in its entirety). Calculations for oral administrations were done by the non-compartmental analyses—extravascular model, whereas we used the non-compartmental analysis—bolus model for i.v. injections. The maximum plasma levels (Cmax) were calculated by comparing the means of the plasma levels at each time point. The Tmax is considered the time point at which the Cmax was reached. The half-life (T½) was calculated from the final log-linear part of the plasma concentration-time curves. The area-under-the-curve for the plasma concentration (plasma AUC) was calculated using the linear trapezoidal rule. Both the AUC from time=0 to the last sampling point (48 h) as well as the AUC extrapolated to infinity was calculated. The oral bioavailability was calculated based on the AUC(0-inf) values. Student t-test was used to compare the means of groups where applicable.

The mark [3] stands for this setting: loperamide 5 mg/kg i.v. with elacridar TPGS NP 100 mg/kg p.o. about 6 h before.
The mark [4] stands for this setting: imatinib with elacridar, 30 min.
The mark [5] stands for this setting: imatinib with elacridar, 60 min.
Setting [6] is: Docetaxel plasma concentration, mean.

“And” between values parts separate entries of the source, which are not always exact repeats. Equal entries are not always repeated. Where two headings read alike, the source gives them in different places.

With `CN(C)C(=O)C(CCN1CCC(O)(c2ccc(Cl)cc2)CC1)(c1ccccc1)c1ccccc1` [loperamide], the complications of dosing result in series [1] (FVB mice, i.v., control group (no elacridar)) is “went smoothly”; in series [1] (FVB mice, loperamide 5 mg/kg i.v. and elacridar NP 100 mg/kg p.o.), “one animal died within 5 minutes after drug administration, whereas another animal had to be sacrificed at 45 min”. The concentration at 1 h in series [1] (FVB (wildtype), mouse, in vivo, loperamide 5 mg/kg i.v. with elacridar TPGS NP 100 mg/kg p.o. about 6 h before, read-out: Brain concentration of loperamide, individual animals) was 2910 ng/g; in series [1] (FVB, mouse, in vivo, 5 mg/kg, loperamide 5 mg/kg i.v. alone, read-out: Brain concentration of loperamide, mean) it was 73 ng/g; in series [1] (FVB, mouse, in vivo, loperamide 5 mg/kg i.v. with elacridar TPGS NP 100 mg/kg p.o. about 6 h before, read-out: Brain concentration of loperamide, mean) it was 3700 ng/g. Besides, the “Brain concentration of loperamide, individual animals” value in series [1] (loperamide 5 mg/kg i.v. alone) is 83.8 ng/g and 79.4 ng/g and 84.1 ng/g and 78.1 ng/g and 41.6 ng/g; in series [1] (setting [3]), 4376.5 ng/g and 4288.7 ng/g and 3981.2 ng/g and 2933.5 ng/g. Moreover, the “Brain concentration of loperamide, mean” value in series [1] (loperamide 5 mg/kg i.v. alone) worked out at 73.4 ng/g; in series [1] (setting [3]), 3697.8 ng/g. In series [1] (with vs without elacridar TPGS NP 100 mg/kg p.o., brain at 1 h), the “increase of brain penetration by concomitant elacridar NP” value stood at 50 fold. Moreover, the “change of plasma AUC by concomitant elacridar dosing” value in series [2] (AUC 5 min to 1 h, with vs without elacridar NP) was “remained unchanged”. Further, the concentration at 5 min was found to be 1030 ng/mL in series [2] (5 mg/kg, Loperamide plasma concentration, mean, loperamide alone, 5 min) and 989 ng/mL in series [2] (Loperamide plasma concentration, mean, loperamide with elacridar, 5 min). Besides, the concentration at 30 min in series [2] (5 mg/kg, Loperamide plasma concentration, mean, loperamide alone, 30 min) is 221 ng/mL; in series [2] (Loperamide plasma concentration, mean, loperamide with elacridar, 30 min), 184 ng/mL. In addition, the concentration at 60 min in series [2] (5 mg/kg, Loperamide plasma concentration, mean, loperamide alone, 60 min) is 81.4 ng/mL; in series [2] (Loperamide plasma concentration, mean, loperamide with elacridar, 60 min), 140 ng/mL. In addition, the AUC(0-t) in series [2] (5 mg/kg, Loperamide plasma AUC(0-1 h), individual animals, loperamide alone) was 740 ng·h/mL; in series [2] (5 mg/kg, Loperamide plasma AUC(0-1 h), individual animals, loperamide with elacridar) it was 704 ng·h/mL; in series [2] (5 mg/kg, Loperamide plasma AUC(0-1 h), mean, loperamide alone) it was 747 ng·h/mL; in series [2] (5 mg/kg, Loperamide plasma AUC(0-1 h), mean, loperamide with elacridar) it was 744 ng·h/mL. For the same compound, the “Loperamide plasma AUC(0-1 h), individual animals” value in series [2] (loperamide alone) is 43377.5 ng·min/mL and 43440.0 ng·min/mL and 47625.0 ng·min/mL and 45132.5 ng·min/mL; in series [2] (loperamide with elacridar), 44405.0 ng·min/mL and 46040.0 ng·min/mL and 45978.8 ng·min/mL. Also, the “Loperamide plasma concentration, individual animals” value was 2500.0 ng/mL and 430.0 ng/mL and 599.0 ng/mL and 679.0 ng/mL and 925.0 ng/mL in series [2] (loperamide alone, 5 min); 191.0 ng/mL and 166.0 ng/mL and 168.0 ng/mL and 354.0 ng/mL and 226.0 ng/mL in series [2] (loperamide alone, 30 min); 111.0 ng/mL and 87.5 ng/mL and 88.0 ng/mL and 26.0 ng/mL and 94.5 ng/mL in series [2] (loperamide alone, 60 min); 1220.0 ng/mL and 306.0 ng/mL and 376.0 ng/mL and 511.0 ng/mL and 2530.0 ng/mL in series [2] (loperamide with elacridar, 5 min); 115.0 ng/mL and 178.0 ng/mL and 163.0 ng/mL and 282.0 ng/mL in series [2] (loperamide with elacridar, 30 min); 106.0 ng/mL and 134.0 ng/mL and 270.5 ng/mL and 48.3 ng/mL in series [2] (loperamide with elacridar, 60 min).

Take imatinib: the complications of dosing entry in series [1] (mouse, in vivo, iv) was “without complications”. Further, the “Imatinib plasma concentration, individual animals” value is 49100 ng/mL and 50400 ng/mL and 38200 ng/mL and 61300 ng/mL and 48900 ng/mL in series [2] (imatinib alone, 5 min); 6590 ng/mL and 11500 ng/mL and 7690 ng/mL and 13200 ng/mL and 11600 ng/mL in series [2] (imatinib alone, 30 min); 1920 ng/mL and 1260 ng/mL and 2350 ng/mL and 2050 ng/mL and 2760 ng/mL in series [2] (imatinib alone, 60 min); 90800 ng/mL and 43500 ng/mL and 50000 ng/mL and 34400 ng/mL and 37900 ng/mL in series [2] (imatinib with elacridar, 5 min); 11000 ng/mL and 7860 ng/mL and 11700 ng/mL and 8910 ng/mL and 12600 ng/mL in series [2] (setting [4]); 3630 ng/mL and 5580 ng/mL and 3840 ng/mL and 4710 ng/mL and 4100 ng/mL in series [2] (setting [5]). The “Imatinib plasma concentration, mean” value came out at 49580.0 ng/mL in series [2] (imatinib alone, 5 min); 10116.0 ng/mL in series [2] (imatinib alone, 30 min); 2068.0 ng/mL in series [2] (imatinib alone, 60 min); 51320.0 ng/mL in series [2] (imatinib with elacridar, 5 min); 10414.0 ng/mL in series [2] (setting [4]); 4372.0 ng/mL in series [2] (setting [5]).

For `CC(=O)O[C@@]12CO[C@@H]1C[C@H](O)[C@@]1(C)C(=O)[C@H](O)C3=C(C)[C@@H](OC(=O)[C@H](O)[C@@H](NC(=O)OC(C)(C)C)c4ccccc4)C[C@@](O)([C@@H](OC(=O)c4ccccc4)[C@H]21)C3(C)C` [docetaxel], the complications of dosing result in series [1] (mouse, in vivo, iv) is on record as “without complications”. In addition, the concentration at 60 min came to 3030 ng/mL in series [2] (Docetaxel plasma concentration, individual animals) and 2570 ng/mL in series [2] (setting [6]). Also, the concentration at 5 min in series [2] (setting [6]) stood at 206000 ng/mL. The compound also had a concentration at 30 min in series [2] (setting [6]) of 12200 ng/mL. Moreover, the AUC(0-t) is 54100 ng·h/mL in series [2] (33 mg/kg, Docetaxel plasma AUC(0-1 h), individual animals) and 53300 ng·h/mL in series [2] (33 mg/kg, Docetaxel plasma AUC(0-1 h), mean).

The values are drawn from patent US20220133679A1, “EFFLUX INHIBITOR COMPOSITIONS AND METHODS OF TREATMENT USING THE SAME” (Izumi Technology, LLC, priority 2012, published 2022).
